From patent US20090192154A1, “SULTAM DERIVATIVES” (Asahi Kasei Pharma Corporation, priority 2007, published 2009) come the findings set out here.

Read-outs that look alike come from different tables or passages of the source.

Common to all, as to format: biochemical
The target of test [1] is T1, human recombinant ADAMTS-5 (Homo sapiens, UniProt Q9UNA0).
T1 construct: human recombinant ADAMTS-5 in which 6×His tag was added to the C-end side of Asn624; 6xHis (C); made in house
T1 sequence (Q9UNA0 262-624 limits assumed): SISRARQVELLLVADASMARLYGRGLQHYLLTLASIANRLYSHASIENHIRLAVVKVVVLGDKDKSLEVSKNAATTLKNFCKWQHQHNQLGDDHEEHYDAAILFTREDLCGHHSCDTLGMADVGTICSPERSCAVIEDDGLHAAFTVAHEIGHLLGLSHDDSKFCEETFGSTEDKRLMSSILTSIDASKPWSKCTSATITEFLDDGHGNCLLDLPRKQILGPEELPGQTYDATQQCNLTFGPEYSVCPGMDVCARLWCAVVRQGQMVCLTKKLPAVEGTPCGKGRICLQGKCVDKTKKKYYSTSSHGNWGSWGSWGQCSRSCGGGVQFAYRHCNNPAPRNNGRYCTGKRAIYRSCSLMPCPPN
The test can be described thus: Inhibitory action for ADAMTS-5 (aggrecanase) activity, FRET assay with aggrecan interglobular domain peptide. The note with it: human recombinant ADAMTS-5, 37° C. for 60 minutes. Here is the method:
The enzyme protein used for measurement of ADAMTS-5 activity was human recombinant ADAMTS-5. An insect cell line was prepared that stably expressed human recombinant ADAMTS-5 in which 6×His tag was added to the C-end side of Asn624. The culture supernatant of this cell line was collected, and the obtained culture supernatant was purified using Ni-NTA agarose (Qiagen)
A matrix peptide used for measurement of aggrecanase activity was Interglobular domain of human recombinant aggrecan. With reference to the method of Hughes, et al. (J. Biol. Chem. 272: pp. 20269-20274, 1997), the peptide of Thr331 to Gly457 of human aggrecan was contained, and the FLAG epitope peptide was added at the N-terminal, and the C-terminal was modified with biotin. This peptide was expressed using Escherichia coli, and the obtained Escherichia coli was subjected to lysis, and then the peptide was purified with an affinity column (Promega)
Desired concentration of the test compound was reacted in 40 μl of a mixed reaction solution containing 50 mmol/L Tris-HCl (pH 7.5), 100 mmol/L NaCl, 10 mmol/L CaCl2, 0.05% Brij35 and human recombinant ADAMTS-5 and Interglobular domain peptide of human recombinant aggrecan at 37° C. for 60 minutes. To the mixed reaction solution was added 10 μl of 0.2 mol/L EDTA to stop the enzyme reaction. Five μl of this mixed reaction solution was harvested and transferred to a 384 well plate. 0.2% Bovine albumin, cryptate-labeled Streptavidin (CIS bio) and XL 665-labeled anti-FLAG (M2) antibody (CIS bio) suitably diluted with PBS (−)-containing 800 mmol/L potassium fluoride were added thereto so that the amount of each of the added matters was 2.5 μl. The resultant solution was incubated at room temperature. After 60 minutes, the fluorescence value was measured at 340 nm excitation wavelength and 615 nm and 665 nm measurement wavelengths with a fluorescence plate reader. When the matrix peptide was not cleaved, the fluorescence resonance energy transfer from cryptate to XL665 occurs and long life fluorescence of 665 nm wavelength is generated. […] Therefore, the aggrecanase activity was calculated using the change of the ratio of the fluorescence value at 665 nm and the fluorescence value at 615 nm. […] The inhibitory action for aggrecanase activity was represented by IC50 value (μmol/L). Exp. No. in Table 2 represents Example number.

The target in test [2] is T2, activated human recombinant MMP-2 (Homo sapiens, UniProt P08253).
T2 construct: purchased R&D
T2 sequence (P08253 110-660): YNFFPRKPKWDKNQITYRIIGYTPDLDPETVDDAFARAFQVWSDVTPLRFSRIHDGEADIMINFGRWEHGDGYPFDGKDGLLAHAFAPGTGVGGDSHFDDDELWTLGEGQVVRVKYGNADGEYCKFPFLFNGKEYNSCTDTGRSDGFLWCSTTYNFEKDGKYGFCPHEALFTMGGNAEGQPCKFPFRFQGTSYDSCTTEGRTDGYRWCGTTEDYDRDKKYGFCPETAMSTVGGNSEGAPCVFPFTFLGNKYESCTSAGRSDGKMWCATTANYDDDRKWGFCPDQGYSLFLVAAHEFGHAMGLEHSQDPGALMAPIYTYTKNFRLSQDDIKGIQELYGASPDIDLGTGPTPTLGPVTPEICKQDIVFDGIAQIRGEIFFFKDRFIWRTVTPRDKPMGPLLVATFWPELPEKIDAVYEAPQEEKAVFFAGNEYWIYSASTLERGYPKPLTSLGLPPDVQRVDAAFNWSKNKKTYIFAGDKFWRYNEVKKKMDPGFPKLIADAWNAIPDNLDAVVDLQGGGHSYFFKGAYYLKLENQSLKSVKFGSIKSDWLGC
The test can be described thus: Inhibitory action for MMP-2 activity, fluorescence peptide assay. The note with it: activated human recombinant MMP-2, 30° C. for 45 minutes. Here is the method: Desired concentration of the test compound was reacted in 100 μl of a mixed reaction solution containing 50 mmol/L Tris-HCl (pH7.5), 150 mmol/L NaCl, 10 mmol/LCaCl2, 0.05% Brij35 and activated human recombinant MMP-2 (R&D) and fluorescence peptide matrix Mca-ProLeuGlyLeuDpaAlaArg-NH2 (R&D) at 30° C. for 45 minutes. To the mixed reaction solution, 10 μl of 0.2 mol/L EDTA was added to stop the enzyme reaction. Then, the fluorescence value was measured at 320 nm excitation wavelength and 405 nm measurement wavelength with a fluorescence plate reader.

Test [3] deals with T3, activated human recombinant MMP-3 (Homo sapiens, UniProt P08254).
T3 construct: purchased R&D
Kind of test: Inhibitory action for MMP-3 activity, fluorescence peptide assay. The note with it: activated human recombinant MMP-3, 30° C. for 45 minutes. Here is the method:
Desired concentration of the test compound was reacted in 100 μl of a mixed reaction solution containing 50 mmol/L Tris-HCl (pH7.5), 150 mmol/LNaCl, 10 mmol/LCaCl2, 0.05% Brij35 and activated human recombinant MMP-3 (R&D) and fluorescence peptide matrix Mca-ArgProLysProValGlu-Nval-TrpArgLys (Dnp) —NH2 (R&D) at 30° C. for 45 minutes. To the mixed reaction solution was added 10 μl of 0.2 mol/L EDTA to stop the enzyme reaction. Then, the fluorescence value was measured at 320 nm excitation wavelength and 405 nm measurement wavelength with a fluorescence plate reader.

In test [4] the target is T4, activated human recombinant MMP-14 catalytic domain (Homo sapiens, UniProt P50281).
T4 construct: purchased Calbiochem
The test can be described thus: Inhibitory action for MMP-14 activity, fluorescence peptide assay. As to conditions: 30° C. for 45 minutes. Here is the method: Desired concentration of the test compound was reacted in 100 μl of a mixed reaction solution containing 50 mmol/L Tris-HCl (pH7.5), 150 mmol/LNaCl, 10 mmol/LCaCl2, 0.05% Brij35 and activated human recombinant MMP-14 catalytic domain (Calbiochem) and fluorescence peptide matrix (R&D) at 30° C. for 45 minutes. To the mixed reaction solution was added 10 μl of 0.2 mol/L EDTA to stop the enzyme reaction. Then, the fluorescence value was measured at 320 nm excitation wavelength and 405 nm measurement wavelength with a fluorescence plate reader.

The mark [5] stands for this setting: read-out: ADAMTS-5 inhibitory activity IC50 value.

T3 sequence (P08254 100-477): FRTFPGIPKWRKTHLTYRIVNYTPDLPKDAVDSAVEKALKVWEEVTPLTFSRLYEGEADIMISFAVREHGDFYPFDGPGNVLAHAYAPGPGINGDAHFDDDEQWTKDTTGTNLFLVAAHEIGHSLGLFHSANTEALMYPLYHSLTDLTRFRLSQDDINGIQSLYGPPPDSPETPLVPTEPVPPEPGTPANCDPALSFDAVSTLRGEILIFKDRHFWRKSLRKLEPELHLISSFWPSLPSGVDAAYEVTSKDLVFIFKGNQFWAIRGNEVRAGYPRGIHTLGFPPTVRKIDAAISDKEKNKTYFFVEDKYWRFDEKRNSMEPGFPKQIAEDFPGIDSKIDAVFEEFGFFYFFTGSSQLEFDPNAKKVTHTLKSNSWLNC

Consider `CCC(C(=O)O)N1Cc2sc(C#Cc3ccc(-c4ccccc4)cc3)cc2S1(=O)=O` (centres unmarked) [Example 69], for which, in test [1] (setting [5]), the IC50 was no more than 2000 nM.

For `CCC(C(=O)O)N1Cc2sc(/C=C/c3ccc(-c4ccccc4)cc3)cc2S1(=O)=O` (centres unmarked) [Example 22], the IC50 in test [1] (setting [5]) is no more than 2000 nM.

In the case of `O=C(NO)C(C1CCCCC1)N1Cc2sc(-c3ccccc3)cc2S1(=O)=O` (centres unmarked) [Example 13], the IC50 in test [1] (read-out: ADAMTS-5 IC50) came to 2000 nM.

Consider `CCC(C(=O)O)N1Cc2sc(-c3ccc(OCc4ccccc4)c(F)c3)cc2S1(=O)=O` (centres unmarked) [Example 113], for which the IC50 in test [2], in test [3] and in test [4] was no less than 30000 nM in each case.

Turning to `CCC(C(=O)O)N1Cc2sc(-c3ccc(/C=C/c4ccc(-c5ccccc5)cc4)cc3)cc2S1(=O)=O` (centres unmarked) [Example 96], the half-maximal inhibitory concentration (IC50) in test [1] (setting [5]) was no more than 2000 nM; in test [2] it was no less than 30000 nM; in test [3] it was no less than 30000 nM; in test [4] it was no less than 30000 nM.

For the molecule `CC(C)C(C(=O)NO)N1Cc2sc(-c3ccccc3)cc2S1(=O)=O` (centres unmarked) [Example 5], in test [1] (read-out: ADAMTS-5 IC50), the half-inhibitory concentration (IC50) came out at 2100 nM.

As for `CCC(C(=O)O)N1Cc2sc(-c3ccc(C#Cc4ccccc4)cc3)cc2S1(=O)=O` (centres unmarked) [Example 61], in test [1] (setting [5]), the IC50 is no more than 2000 nM.

Turning to `O=C(NO)C(c1ccccc1)N1Cc2sc(-c3ccccc3)cc2S1(=O)=O` (centres unmarked) [Example 14], the 50% inhibitory concentration (IC50) in test [1] (read-out: ADAMTS-5 IC50) turned out to be 7000 nM.

In the case of `CCC(C(=O)O)N1Cc2sc(-c3ccc(/C=C/c4ccc(Cl)cc4)cc3)cc2S1(=O)=O` (centres unmarked) [Example 94], the concentration for half-maximal inhibition (IC50) in test [1] (setting [5]) was no more than 2000 nM.

Turning to `CCC(C(=O)O)N1Cc2sc(-c3ccc(/C=C/c4ccc(C)cc4)cc3)cc2S1(=O)=O` (centres unmarked) [Example 95], in test [1] (setting [5]), the 50% inhibitory concentration (IC50) was no more than 2000 nM.

In the case of `CCC(C(=O)O)N1Cc2sc(-c3ccc(-c4cc5ccccc5[nH]4)cc3)cc2S1(=O)=O` (centres unmarked) [Example 54], the IC50 in test [1] (setting [5]) was no more than 2000 nM.

In the case of `CCC(C(=O)NO)N1Cc2sc(-c3ccccc3)cc2S1(=O)=O` (centres unmarked) [Example 12], the IC50 in test [1] (read-out: ADAMTS-5 IC50) turned out to be 2000 nM.

As to `CCC(C(=O)O)N1Cc2cc(-c3ccc(COc4ccc(Oc5ccccc5)cc4)cc3)sc2S1(=O)=O` (centres unmarked) [Example 104], the half-maximal inhibitory concentration (IC50) is no more than 2000 nM in test [1] (setting [5]), no less than 30000 nM in test [2], no less than 30000 nM in test [3] and no less than 30000 nM in test [4].

As to `CCC(C(=O)O)N1Cc2sc(-c3ccc(-c4cncnc4)cc3)cc2S1(=O)=O` (centres unmarked) [Example 56], the IC50 in test [1] (setting [5]) is no more than 2000 nM.

With `CCC(C(=O)NO)N1Cc2sc(-c3ccccc3)cc2S1(=O)=O` (centres unmarked) [Example 18], the concentration for half-maximal inhibition (IC50) in test [1] (setting [5]) is no more than 2000 nM.

Turning to `CCC(C(=O)O)N1Cc2sc(-c3ccc(/C=C/c4ccc(OC)cc4)cc3)cc2S1(=O)=O` (centres unmarked) [Example 60], in test [1] (setting [5]), the IC50 was no more than 2000 nM.

As for `CCC(C(=O)O)N1Cc2sc(-c3ccc(/C=C/c4ccccc4)cc3)cc2S1(=O)=O` (centres unmarked) [Example 30], the IC50 in test [1] (setting [5]) is no more than 2000 nM.

Take `CCC(C(=O)O)N1Cc2sc(/C=C/c3ccc(-c4ccccc4)cc3)cc2S1(=O)=O` (single isomer, unassigned) [Example 41]: the half-inhibitory concentration (IC50) in test [1] (setting [5]) was no more than 2000 nM.

In the case of `CCC(C(=O)O)N1Cc2sc(C#Cc3ccc(N(C)C)cc3)cc2S1(=O)=O` (centres unmarked) [Example 66], the IC50 in test [1] (setting [5]) was no more than 2000 nM.

Take `CCC(C(=O)O)N1Cc2sc(-c3ccc(-c4ccc5c(ccn5C)c4)cc3)cc2S1(=O)=O` (centres unmarked) [Example 53]: in test [1] (setting [5]), the IC50 is no more than 2000 nM.

Consider `CCC(C(=O)O)N1Cc2sc(-c3ccc(NC(=O)c4ccc(OCc5ccccc5)cc4)cc3)cc2S1(=O)=O` (centres unmarked) [Example 147], for which the IC50 in test [1] (setting [5]) is no more than 2000 nM; in test [2] it was no less than 30000 nM; in test [3] it was no less than 30000 nM; in test [4], no less than 30000 nM.

With `CC(C(=O)NO)N1Cc2sc(-c3ccccc3)cc2S1(=O)=O` (centres unmarked) [Example 11], in test [1] (read-out: ADAMTS-5 IC50), the concentration for half-maximal inhibition (IC50) is 4000 nM.

Consider `CCC(C(=O)NO)N1Cc2sc(/C=C/c3ccc(-c4ccccc4)cc3)cc2S1(=O)=O` (centres unmarked) [Example 26], for which the concentration for half-maximal inhibition (IC50) in test [1] (setting [5]) is no more than 2000 nM.

As for `CCC(C(=O)O)N1Cc2sc(-c3ccc(-c4ccc5c(cnn5C)c4)cc3)cc2S1(=O)=O` (centres unmarked) [Example 102], the IC50 in test [1] (setting [5]) is no more than 2000 nM; in test [3], no less than 30000 nM; in test [4], no less than 30000 nM.

For `CCC(C(=O)O)N1Cc2sc(-c3ccc(/C=C/c4ccsc4)cc3)cc2S1(=O)=O` (centres unmarked) [Example 97], the IC50 in test [1] (setting [5]) was no more than 2000 nM.

The term IC50 denotes the midpoint of a concentration-inhibition curve.
